Measured values from patent US9399644B2, “[1,3] dioxolo [4,5-G] quinoline-6(5H)thione derivatives as inhibitors of the late SV40 factor (LSF) for use in treating cancer” (TRUSTEES OF BOSTON UNIVERSITY, priority 2011, dated 2016).

Assays:
LSF = molecular target: T1, LSF (Homo sapiens, UniProt Q12800); experiment: LSF-dependent reporter assay (dual luciferase); assay type: cell-based; settings: for LSF inhibition (result in words): NIH 3T3 cells transfected with LSF expression vector and LSF-driven firefly luciferase reporter, FIGS. 5-7
T1 construct: expressed in transfected cells; host or cells: NIH 3T3 cells
T1 sequence (Q12800 1-502): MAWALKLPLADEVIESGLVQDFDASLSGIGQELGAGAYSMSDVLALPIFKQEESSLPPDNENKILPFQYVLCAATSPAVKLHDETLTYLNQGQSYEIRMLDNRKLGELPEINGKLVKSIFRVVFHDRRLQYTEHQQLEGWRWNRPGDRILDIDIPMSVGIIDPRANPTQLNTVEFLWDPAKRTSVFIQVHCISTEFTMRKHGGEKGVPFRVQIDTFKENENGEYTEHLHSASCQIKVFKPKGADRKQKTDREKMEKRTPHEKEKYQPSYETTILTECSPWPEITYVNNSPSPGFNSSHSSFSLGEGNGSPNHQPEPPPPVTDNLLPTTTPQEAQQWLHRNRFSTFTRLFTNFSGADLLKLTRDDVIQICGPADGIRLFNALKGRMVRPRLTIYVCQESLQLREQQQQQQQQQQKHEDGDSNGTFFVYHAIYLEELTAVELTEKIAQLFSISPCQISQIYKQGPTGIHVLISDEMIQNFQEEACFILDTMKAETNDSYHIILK
Protocol: NIH 3T3 cells were transfected with the expression construct pEF1α-LSF, an LSF expression vector^1,2; the reporter construct pGL3B-WT4E1b, a firefly luciferase reporter vector driven by LSF^3; phRL-TK, a control renilla luciferase reporter vector; and pEFGP, essentially as previously described^3. Five hours after transfection, either vehicle (DMSO) or compounds (VI, I and II, IV and V) were added (FIG. 7, FIG. 5 and FIG. 6, respectively), keeping DMSO at 0.5%. Cell extracts were harvested 36 hours post-transfection and firefly and renilla luciferase activities measured via a dual luciferase assay (Promega). Five μl of extract was mixed with 30 μl of luciferase assay reagent (Promega), and luminescence measured for 10 seconds using a 20/20n luminometer (Turner Biosystems). Subsequently, 30 μl of Stop & Glo reagent (Promega) was added, and luminescence also measured for 10 seconds. LSF transactivation activity is given as relative luciferase activity, the ratio of firefly to renilla activities, and normalized to the relative luciferase activity in the presence of vehicle alone. Data for this assay are shown in graphically in FIGS. 5-7.

[1] = system: hepatocellular carcinoma (HCC); settings: single treatment; cited from earlier work

| SMILES | LSF inhibition (result in words) (LSF) | other results |
| --- | --- | --- |
| CCOc1ccccc1[C@@H]1CC(=S)Nc2cc3c(cc21)OCO3 [Compound I] | exhibit properties as LSF inhibitors |  |
| CCOc1ccccc1[C@H]1CC(=S)Nc2cc3c(cc21)OCO3 [Compound II] | exhibit properties as LSF inhibitors |  |
| CCOc1ccccc1C1CC(=S)Nc2cc3c(cc21)OCO3 (racemic) [racemic mixture of compounds I and II, 8-(2-ethoxyphenyl)-7,8-dihydro-[1,3]dioxolo[4,5-g]quinoline-6(5H)-thione] | particularly strong LSF inhibitors | effectiveness as LSF inhibitor compared with the racemic mixture of compounds IV and V (FIG. 6) and Compound VI (FIG. 7) (LSF; FIG. 5 versus FIG. 6 and FIG. 7): about 10 times; rank among LSF inhibitors observed by the applicants (LSF; experiments thus far performed by the applicants): strongest LSF inhibitor so far observed |
| CNC(=O)c1cc(Oc2ccc(NC(=O)Nc3ccc(Cl)c(C(F)(F)F)c3)cc2)ccn1 [sorafenib] |  | increase of survival [1]: 2-3 months |
| CCOc1ccccc1-c1cc(=S)[nH]c2cc3c(cc12)OCO3 [Compound III, 8-(2-ethoxyphenyl)-[1,3]dioxolo[4,5-g]quinolin-6(5H)-thione] | exhibit properties as LSF inhibitors |  |
| CCOc1ccccc1[C@@H]1Cc2nncn2-c2cc3c(cc21)OCO3 [IV] | exhibit properties as LSF inhibitors |  |
| CCOc1ccccc1[C@H]1Cc2nncn2-c2cc3c(cc21)OCO3 [Compound V] | exhibit properties as LSF inhibitors |  |
